Values of other authors, collected in US4127541A, “Novel decapeptides, intermediates therefor, and compositions and methods employing said decapeptides” (priority 1977, dated 1978).

Tests used:
[1] = test system: brain opiate receptor sites
[2] = injected directly into the brain of the rat

H-Tyr-Gly-Gly-Phe-Met-OH [methionine enkephalin]
binding to partially purified brain opiate receptor sites [1]: binds stereo-specifically
analgesic activity [2]: weak analgesic agent of short duration
